We go through 33 molecules from US10682352B2, “Compound having mutant IDH inhibitory activity, preparation method and use thereof” (SHANGHAI HAIHE PHARMACEUTICAL CO., LTD., priority 2016, dated 2020).

A value given as a limit tells only on which side of the number the result lay.

As a reminder, the IC50 is the concentration at which inhibition is half-maximal.

Chain of IDH1 R132H (O75874 whole entry R132H): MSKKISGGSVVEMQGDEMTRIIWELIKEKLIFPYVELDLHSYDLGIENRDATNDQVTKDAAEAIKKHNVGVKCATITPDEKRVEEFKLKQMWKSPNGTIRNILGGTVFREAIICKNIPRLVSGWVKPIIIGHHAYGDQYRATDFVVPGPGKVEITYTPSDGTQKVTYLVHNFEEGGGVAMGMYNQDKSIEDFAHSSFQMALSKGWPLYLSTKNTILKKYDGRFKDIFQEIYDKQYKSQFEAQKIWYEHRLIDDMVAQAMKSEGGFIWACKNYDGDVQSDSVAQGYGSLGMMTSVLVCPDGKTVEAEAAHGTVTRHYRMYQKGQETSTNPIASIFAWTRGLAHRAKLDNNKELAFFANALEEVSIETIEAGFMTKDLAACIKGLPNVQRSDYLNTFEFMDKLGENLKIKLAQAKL

The target in this assay is IDH1 R132H (Homo sapiens (Human), UniProt O75874, R132H). The experiment in a line: Effect on the enzyme activity of IDH1 at the molecular level (NADPH consumption, diaphorase/resazurin). The class given is biochemical. Conditions: α-KG 1 mM, NADPH 4 μM, 60 min room temperature. The protocol:
The enzyme used in the experiment was purchased from cayman Co.
The substrates α-KG, NADPH and Diaphorase were purchased from Sigma; Resazurin was purchased from J&K; and the remaining reagents were purchased from Sinopharm Chemical Reagent Co., Ltd.
Compound preparation: Compound 12000 g was centrifuged for 5 min, DMSO was added to prepare 10 mM, which was vortexed, then ultrasonic treatment for 10 minutes, and stored at −40° C. The stock solution was diluted firstly with DMSO to a 10 μM solution when tested and then gradient-diluted for 3 times to a different test concentration.
Test method: The enzyme activity of IDH1 to convert α-KG to 2HG was measured by the consumption of NADPH. After the enzymatic reaction was completed, a catalytic excess of diaphorase and reazurin were added, and the resulting fluorescent signal could reflect the amount of remaining NADPH. […] IC50 values were calculated using GraphPad Prism software.
Background: The colour change of resazurin is a common sign of viable cells or microbes.
As for `[2H]C1([2H])[C@H](C(C)C)N(c2ccnc(N[C@@H](C)c3ccc(-c4cccc(Cl)c4)cn3)n2)C(=O)N1C` [Compound 2, (S)-3-(2-(((S)-1-(5-(3-chlorophenyl)pyridin-2-yl)ethyl)amino)pyrimidin-4-yl)-4-isopropyl-1-methyl-imidazolidine-2-one-5,5-dideutero], the IC50 lay within 0.1 to 1 µM.

The molecule `CC(C)[C@H]1CNC(=O)N1c1ccnc(NC2(c3cn(-c4ccc(Cl)cc4)cn3)CC2)n1` [Compound 8, (S)-1-(2-((1-(1-(4-chlorophenyl)-1H-imidazol-4-yl)cyclopropyl)amino)pyrimidin-4-yl)-5-isopropyl imidazolidine-2-one] gave an IC50 of 0.1 to 1 µM. In the case of `CC(Nc1nccc(N2C(=O)NC[C@@H]2C(C)C)n1)c1ccc(Oc2ccccc2)cc1` (stereo partly drawn) [Compound 9, (5S)-5-isopropyl-1-(2-((1-(4-phenoxyphenyl)ethyl)amino)pyrimidin-4-yl)imidazolidine-2-one], the IC50 is 0.1 to 1 µM. In turn, `C[C@H](Nc1nccc(N2C(=O)NCC23CCCC3)n1)c1cn(-c2ccc(Cl)cc2)cn1` [Compound 11, (S)-1-(2-((1-(1-(4-chlorophenyl)-1H-imidazol-4-yl)ethyl)amino)pyrimidin-4-yl)-1,3-diazaspiro[4.4]-2-one] returned an IC50 of 0.1 to 1 µM.

`C[C@H](Nc1nccc(N2C(=O)NCC2(C)C)n1)c1cn(-c2ccc(Cl)cc2)cn1` [Compound 12, (S)-1-(2-((1-(1-(4-chlorophenyl)-1H-imidazol-4-yl)ethyl)amino)pyrimidin-4-y 1)-5,5-dimethyl imidazolidine-2-one]: the IC50 is 0.1 to 1 µM. `O=C1NC[C@H](c2ccccc2)N1c1ccnc(NC2(c3cn(-c4ccc(Cl)cc4)cn3)CC2)n1` [Compound 13, (S)-1-(2-((1-(1-(4-chlorophenyl)-1H-imidazol-4-yl)cyclopropyl)amino)pyrimidin-4-yl)-5-phenylimidazolidine-2-one] returned an IC50 of 0.1 to 1 µM. Under `C[C@H](Nc1nccc(N2C(=O)NC[C@@H]2C2CC2)n1)c1cn(-c2ccc(Cl)cc2)cn1` [Compound 14] stands 0.1 to 1 µM; under `CC(C)[C@H]1CNC(=O)N1c1ccnc(NC2(c3ccc(-c4ccc(Cl)cc4)cc3)CC2)n1` [Compound 16, (S)-1-(2-((1-(4′-chloro-[1,1′-biphenyl]-4-yl)cyclopropyl)amino)pyrimidin-4-yl)-5-isopropyl imidazolidine-2-one], 0.1 to 1 µM; under `CC(C)[C@H]1CN(C)C(=O)N1c1ccnc(NC2(c3cn(-c4ccc(Cl)cc4)cn3)CC2)n1` [Compound 19, (S)-3-(2-((1-(1-(4-chlorophenyl)-1H-imidazol-4-yl)cyclopropyl)amino)pyrimidin-4-yl)-4-isopropyl-1-methylimidazolidine-2-one], 0.1 to 1 µM. `Cc1ccc(-n2cnc(C3(Nc4nccc(N5C(=O)NC[C@@H]5C(C)C)n4)CC3)c2)cn1` [Compound 29, (S)-5-isopropyl-1-(2-((1-(1-(6-methylpyridin-3-yl)-1H-imidazol-4-yl)cyclopropyl)amino)pyrimidine-4-yl)-2-one] displayed an IC50 of 0.1 to 1 µM. Molecule `CC(C)[C@H]1CN(C)C(=O)N1c1ccnc(NC2(c3cn(C4CCC(F)(F)CC4)cn3)CC2)n1` [Compound 36, (S)-3-(2-((1-(1-(4,4-difluorocyclohexyl)-1H-imidazol-4-yl)cyclopropyl)amino)pyrimidin-4-yl)-4-isopropyl-1-methylimidazolidine-2-one] came in with an IC50 of 0.1 to 1 µM. For `CC(C)[C@H]1CN(C)C(=O)N1c1ccnc(NC2(c3cn(-c4ccc(C5CC5)cc4)cn3)CC2)n1` [Compound 39, (S)-3-(2-((1-(1-(4-cyclopropylphenyl)-1H-imidazol-4-yl)cyclopropyl)amino)pyrimidin-4-yl)-4-isopropyl-1-methylimidazolidine-2-one], the half-maximal inhibitory concentration (IC50) lay within 0.1 to 1 µM. In turn, `CC(C)[C@H]1CN(C)C(=O)N1c1ccnc(NC2(c3cn(CC4CCCC4)cn3)CC2)n1` [Compound 40, (S)-3-(2-((1-(1-(cyclopentylmethyl)-1H-imidazol-4-yl)cyclopropyl)amino)pyrimidin-4-yl)-4-isopropyl-1-methylimidazolidine-2-one] displayed an IC50 of 0.1 to 1 µM. Under `CCN1C[C@H](C(C)C)N(c2ccnc(NC3(c4cn(-c5cccc(Cl)c5)cn4)CC3)n2)C1=O` [Compound 41] stands 0.1 to 1 µM; under `CC(C)[C@H]1CN(C)C(=O)N1c1ccnc(NC2(c3cn(-c4cc(Cl)cc(C#N)c4)cn3)CC2)n1` [Compound 45, (S)-3-chloro-5-(4-(1-((4-(5-isopropyl-3-methylimidazolidine-2-one-1-yl)pyrimidin-2-yl)amine)cyclopropyl)-1H-imidazolidine-1-yl) phenyl cyanide], under 0.1 µM. `CC(C)[C@H]1CN(C)C(=O)N1c1ccnc(NC2(c3cn(-c4cc(Cl)cc(C5CC5)c4)cn3)CC2)n1` [Compound 48] came in with an IC50 of under 0.1 µM.

In turn, `CC(C)[C@H]1CN(C)C(=O)N1c1ccnc(NC2(c3cn(-c4ccccc4Cl)cn3)CC2)n1` [Compound 51, (S)-3-(2-((1-(1-(2-chlorophenyl)-1H-imidazol-4-yl)cyclopropyl)amino)pyrimidin-4-yl)-4-isopropyl-1-methylimidazolidine-2-one] came in with an IC50 of 0.1 to 1 µM. `CC(C)[C@H]1CN(C)C(=O)N1c1ccnc(NC2(c3cn(-c4cc(F)cc(C5CC5)c4)cn3)CC2)n1` [Compound 53] registered an IC50 of under 0.1 µM. `CC(C)c1cccc(-n2cnc([C@H](C)Nc3nccc(N4C(=O)N(C)C[C@@H]4C(C)C)n3)c2)c1` [Compound 54] showed an IC50 of 0.1 to 1 µM. In turn, `CC(C)[C@H]1CN(C)C(=O)N1c1ccnc(N[C@@H](C)c2cn(C3CCC(C)(C)CC3)cn2)n1` [Compound 56, (S)-3-(2-(((S)-1-(1-(4,4-dimethylcyclohexyl)-1H-imidazol-4-yl)ethyl)amino)pyrimidin-4-yl)-4-isopropyl-1-methylimidazolidine-2-one] gave a half-inhibitory concentration (IC50) of 0.1 to 1 µM.

Molecule `CC(C)[C@H]1CN(C)C(=O)N1c1ccnc(N[C@@H](C)c2cn(-c3cccc(C(F)(F)F)c3)cn2)n1` [Compound 59] came in with an IC50 of 0.1 to 1 µM.

`CC(C)[C@H]1CN(C)C(=O)N1c1ccnc(N[C@@H](C)c2cn(-c3cc(Cl)cc(Cl)c3)cn2)n1` [Compound 60, (S)-3-(2-(((S)-1-(1-(3,5-dichlorophenyl)-1hydro-imidazol-4-yl)ethyl)amino)pyrimidin-4-yl)-4-isopropyl-1-methylimidazolidine-2-one] gave an IC50 of 0.1 to 1 µM. Consider `CC(C)[C@H]1CN(C)C(=O)N1c1ccnc(NC2(c3ncn(-c4cccc(C5CC5)c4)n3)CC2)n1` [Compound 64], for which the IC50 fell in the range of 0.1 to 1 µM. For `CC(C)CCn1cnc([C@H](C)Nc2nccc(N3C(=O)N(C)C[C@@H]3C(C)C)n2)c1` [Compound 66, (S)-3-(2-(((S)-1-(1-isopentyl-1H-imidazol-4-yl)yl)amino)pyrimidin-4-yl)-4-isopropyl-1-methylimidazolidine-2-one], the IC50 is 0.1 to 1 µM. With `CC(C)[C@H]1CN(C)C(=O)N1c1ccnc(NC2(c3cn(-c4cccc(C5CC5)c4)c(Br)n3)CC2)n1` [Compound 67], the IC50 was in the range of 0.1 to 1 µM. The same measure for `CC(C)[C@H]1CN(C)C(=O)N1c1ccnc(NC2(c3ncn(-c4cccc(C5CC5)c4)c3C#N)CC2)n1` [Compound 69, (S)-1-(3-cyclopropylphenyl)-4-(1-((4-(5-isopropyl-3-methyl-2-oxoimidazolidine-1-yl)pyrimidine-2-yl)amino)cyclopropyl)-1H-imidazole-5-carbonitrile]: 0.1 to 1 µM; for `CC(C)[C@H]1CN(C)C(=O)N1c1ccnc(N[C@@H](C)c2ncn(-c3ccc(Cl)cc3)n2)n1` [Compound 70]: 0.1 to 1 µM.

In turn, `CC(C)[C@H]1CN(C)C(=O)N1c1ccnc(NC2(c3cn(-c4cccc(C5CC5)c4)cn3)CCC2)n1` [Compound 71, (S)-3-(2-((1-(1-(3-cyclopropylphenyl)-1H-imidazol-4-yl)cyclobutyl)amino)pyrimidin-4-yl)-4-isopropyl-1-methylimidazolidine-2-one] displayed an IC50 of 0.1 to 1 µM. Take `CC(C)[C@H]1CN(C)C(=O)N1c1ccnc(NC(C)(C)c2cn(-c3ccc(Cl)cc3)cn2)n1` [Compound 72, (S)-3-(2-((2-(1-(4-chlorophenyl)-1H-imidazol-4-yl)prop-2-yl)amino)pyrimidin-4-yl)-4-isopropyl-1-methylimidazolidine-2-one]: the IC50 is 0.1 to 1 µM.

Molecule `CC(C)[C@H]1CN(C2CC2)C(=O)N1c1ccnc(N[C@@H](C)c2cn(-c3ccc(Cl)cc3)cn2)n1` [Compound 73, (S)-3-(2-(((S)-1-(1-(4-chlorophenyl)-1H-imidazol-4-yl)ethyl)amino)pyrimidin-4-yl)-4-isopropyl-1-cyclopropylimidazolidine-2-one] gave an IC50 of 0.1 to 1 µM. `CCN1C[C@H](C(C)C)N(c2ccnc(N[C@@H](C)c3cn(-c4ccc(Cl)cc4)cn3)n2)C1=O` [Compound 74, (S)-3-(2-(((S)-1-(1-(4-chlorophenyl) 1H-imidazol-4-yl)ethyl)amino)pyrimidin-4-yl)-1-ethyl-4-isopropylimidazolidine-2-one]: the IC50 was in the range of 0.1 to 1 µM.

`CC(C)[C@H]1CN(C)C(=O)N1c1ccnc(N[C@@H](C)c2cn(C3CCC(F)(F)CC3)cn2)n1` [Compound 75, (S)-3-(2-(((S)-1-(1-(4,4-difluorocyclohexyl)-1H-imidazol-4-yl)ethyl)amino)pyrimidin-4-yl)-4-isopropyl-1-methylimidazolidine-2-one] returned an IC50 of 0.1 to 1 µM. Regarding `Cc1cc(N2C(=O)N(C)C[C@@H]2C2CC2)nc(N[C@@H](C)c2cn(-c3ccc(Cl)cc3)cn2)n1` [Compound 79, (S)-3-(2-(((S)-1-(1-(4-chlorophenyl)-1H-imidazol-4-yl)ethyl)amino)-6-methylpyrimidin-4-yl) cyclopropyl-1-methylimidazolidine-2-one], the IC50 is 0.1 to 1 µM.
